Experiments:
[1] = target: T1, CTF18–RFC bound to PCNA (ADP site in RFC3) (Homo sapiens, UniProt P40938); assay: cryo-EM structure ([…] Å without Mg2+; […] Å with Mg2+); type: binding; conditions: ADP in AAA+ site of RFC3, not added, probably co-purified; seen with and without Mg2+
T1 construct: same complex as P1; RFC3 with N-terminal His6 tag, insect cells; Ctf8/Dcc1 module not resolved in map; with Chromosome transmission fidelity protein 18 homolog; Replication factor C subunit 2; Replication factor C subunit 4; Replication factor C subunit 5; Sister chromatid cohesion protein DCC1; Chromosome transmission fidelity protein 8 homolog; Proliferating cell nuclear antigen

[2] = target: T2, CTF18–RFC bound to PCNA (ATP sites in Ctf18, RFC2, RFC5) (Homo sapiens, UniProt P35250+P40937+Q8WVB6); assay: as above; type: binding; conditions: ATP in AAA+ sites of Ctf18 (adenine density poor), RFC2 and RFC5; RFC4 empty; 0.5 mM ATP, pH 7.5, without Mg2+ or with 5 mM Mg2+ (Mg2+ seen in RFC2 and RFC5); autoinhibited state, closed PCNA
T2 construct: gene CHTF18; seven-subunit complex from insect cells (MultiBac, Sf9/Hi5); N-terminal twin-Strep-TEV tag (Ctf18, RFC2, RFC4) and N-terminal His6 tag (RFC3, RFC5, Dcc1, Ctf8), TEV treated; PCNA from E. coli; Ctf8/Dcc1 module not resolved in map; with Replication factor C subunit 4; Replication factor C subunit 3; Sister chromatid cohesion protein DCC1; Chromosome transmission fidelity protein 8 homolog; Proliferating cell nuclear antigen

| cryo-EM structure (2.9 Å without Mg2+; 3.2 Å with Mg2+) [1] | Structure (SMILES) | cryo-EM structure (2.9 Å without Mg2+; 3.2 Å with Mg2+) [2] |
| --- | --- | --- |
| while ADP appears to engage RFC3 | Nc1ncnc2c1ncn2[C@@H]1O[C@H](COP(=O)(O)OP(=O)(O)O)[C@@H](O)[C@H]1O [ADP] | – |
| – | Nc1ncnc2c1ncn2[C@@H]1O[C@H](COP(=O)(O)OP(=O)(O)OP(=O)(O)O)[C@@H](O)[C@H]1O [ATP] | ATP is bound to subunits Ctf18, RFC2, and RFC5, while ADP appears to engage RFC3 |

From PMC12928700, “Structure of the human CTF18−RFC clamp loader bound to PCNA” (eLife, 2026)
